From ChEMBL document CHEMBL1121493, “Folate analogues altered in the C9-N10 bridge region. 16. Synthesis and antifolate activity of 11-thiohomoaminopterin” (J Med Chem, 1980)
Values after ≈ are worked out from the molar mass of the structure shown.

Experiments:
[1] = target: Reduced folate carrier (Homo sapiens); test: Ability to compete with methotrexate transport in human HeLa cells was determined; settings: read-out: I50
Dihydrofolate reductase [2] = target: Dihydrofolate reductase (Lactobacillus casei, UniProt P00381); test: Ability to inhibit Lactobacillus casei dihydrofolate reductase in vitro was determined
Lacticaseibacillus casei [3] = test: (§1) The compound was tested for inhibition of growth of Lactobacillus casei (ATCC 7469) at 0.1 ng/ml; assay type: functional
Enterococcus faecium [4] = test: The compound was tested for inhibition of growth of Streptococcus faecium (ATCC 8043) at 2.0 ng/ml; assay type: functional
Thymidylate synthase = target: T1, Thymidylate synthase (Lactobacillus casei, UniProt P00469); test: Ability to inhibit Lactobacillus casei thymidylate synthase in vitro was determined; parameters: species or system Lacticaseibacillus casei; settings: read-out: I50
T1 sequence (P00469 whole entry): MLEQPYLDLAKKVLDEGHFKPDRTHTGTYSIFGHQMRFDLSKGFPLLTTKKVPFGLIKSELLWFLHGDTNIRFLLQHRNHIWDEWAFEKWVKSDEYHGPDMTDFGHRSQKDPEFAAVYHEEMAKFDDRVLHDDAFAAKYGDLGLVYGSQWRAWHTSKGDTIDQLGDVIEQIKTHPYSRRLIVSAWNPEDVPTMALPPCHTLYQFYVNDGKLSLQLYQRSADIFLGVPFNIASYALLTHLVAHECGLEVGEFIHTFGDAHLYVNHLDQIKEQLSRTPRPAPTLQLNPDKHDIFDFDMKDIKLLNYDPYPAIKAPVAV

[5] = target: Reduced folate carrier (Homo sapiens); test: Ability to compete with methotrexate transport in human HeLa cells was determined; settings: read-out: I50; remark: listed apart in the source
Lacticaseibacillus casei [6] = test: as §1; assay type: functional, organism-based; settings: read-out: I 50
Enterococcus faecium [7] = test: The compound was tested for inhibition of growth of Streptococcus faecium (ATCC 8043) at 0.1 ng/ml; assay type: functional, organism-based; settings: read-out: I 50
Lacticaseibacillus casei [8] = test: The compound was tested for inhibition of growth of Lactobacillus casei at 0.1 ng/ml (ATCC 7469); assay type: functional, organism-based; settings: read-out: I 50
Dihydrofolate reductase [9] = target: T2, Dihydrofolate reductase (Homo sapiens, UniProt P00374); test: Ability to inhibit human HeLa cell dihydrofolate reductase in vitro was determined
T2 sequence (P00374 whole entry): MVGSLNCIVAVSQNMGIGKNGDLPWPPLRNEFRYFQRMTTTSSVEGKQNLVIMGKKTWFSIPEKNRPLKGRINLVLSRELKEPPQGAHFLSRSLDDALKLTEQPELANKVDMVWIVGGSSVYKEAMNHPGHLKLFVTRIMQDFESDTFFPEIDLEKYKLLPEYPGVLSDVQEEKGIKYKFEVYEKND

Sequence of Dihydrofolate reductase (Lactobacillus casei, UniProt P00381) (P00381 whole entry): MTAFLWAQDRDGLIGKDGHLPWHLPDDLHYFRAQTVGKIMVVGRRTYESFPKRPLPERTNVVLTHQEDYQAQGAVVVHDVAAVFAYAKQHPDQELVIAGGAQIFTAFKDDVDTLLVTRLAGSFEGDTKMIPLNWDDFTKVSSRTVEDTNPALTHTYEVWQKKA

Nc1nc(N)c2nc(CSc3ccc(C(=O)NC(CCC(=O)O)C(=O)O)cc3)cnc2n1 (stereo unspecified)
IC50 [1]: 2700 nM

Nc1nc(N)c2nc(CCSc3ccc(C(=O)NC(CCC(=O)O)C(=O)O)cc3)cnc2n1 (stereo unspecified)
IC50 (Dihydrofolate reductase [2]): 400 nM
inhibition at 0.0001 µg/mL (Lacticaseibacillus casei [3]): 50%
inhibition at 0.002 µg/mL (Enterococcus faecium [4]): 50%
IC50 (Thymidylate synthase): 60 µM
IC50 [5]: 25 µM

Nc1nc(N)c2nc(CCSc3ccc(C(=O)O)cc3)cnc2n1
IC50 (Lacticaseibacillus casei [6]): 0.1 µg/mL (≈ 0.292 µM)
IC50 (Enterococcus faecium [7]): 0.1 µg/mL (≈ 0.292 µM)

COC(=O)c1ccc(SCCc2cnc3nc(N)nc(N)c3n2)cc1
IC50 (Lacticaseibacillus casei [8]): 0.4 µg/mL (≈ 1.12 µM)
IC50 (Enterococcus faecium [7]): 0.016 µg/mL (≈ 0.0449 µM)

Nc1nc(N)c2nc(COc3ccc(C(=O)NC(CCC(=O)O)C(=O)O)cc3)cnc2n1 (stereo unspecified)
IC50 (Dihydrofolate reductase [9]): 740 nM
